# Data reported in ChEMBL document CHEMBL4152218, “Novel hydrazide-hydrazone and amide substituted coumarin derivatives: Synthesis, cytotoxicity screening, microarray, radiolabeling and in vivo pharmacokinetic studies” (Eur J Med Chem, 2018).
# Tests used:
# hTERT-BJ [1] = assay: Cytotoxicity against hTERT-BJ cells at 25 uM after 48 hrs by resazurin dye-based fluorescence assay relative to control; assay type: cell-based; conditions: human
# HepG2 = assay: Antiproliferative activity against human HepG2 cells after 48 hrs by resazurin dye-based fluorescence assay; assay type: functional, cell-based; conditions: HepG2, 48 h
# TERT-RPE1 [2] = assay: Cytotoxicity against hTERT-RPE1 cells at 25 uM after 48 hrs by resazurin dye-based fluorescence assay relative to control; assay type: cell-based; conditions: human, tert-rpe1, 48 h
# [3] = Selectivity index, ratio of IC50 for hTERT-BJ cells to IC50 for human PANC1 cells; assay type: toxicity; conditions: hTERT-BJ cells versus PANC1 cells, read-out: Ratio IC50
# TERT-RPE1 [4] = assay: Cytotoxicity against hTERT-RPE1 cells at 6.25 uM after 48 hrs by resazurin dye-based fluorescence assay relative to control; assay type: cell-based; conditions: human, tert-rpe1, 48 h
# [5] = Selectivity index, ratio of IC50 for hTERT-RPE1 cells to IC50 for human CCRF-CEM cells; assay type: toxicity; conditions: hTERT-RPE1 cells versus CCRF-CEM cells, read-out: Ratio IC50
# [6] = Selectivity index, ratio of IC50 for hTERT-BJ cells to IC50 for human CCRF-CEM cells; assay type: toxicity; conditions: hTERT-BJ cells versus CCRF-CEM cells, read-out: Ratio IC50
# TERT-RPE1 [7] = assay: Cytotoxicity against hTERT-RPE1 cells after 48 hrs by resazurin dye-based fluorescence assay; assay type: cell-based; conditions: Homo sapiens, RPE-1, 48 h
# CCRF-CEM = assay: Antiproliferative activity against human CCRF-CEM cells after 48 hrs by resazurin dye-based fluorescence assay; assay type: functional, cell-based
# hTERT-BJ [8] = assay: Cytotoxicity against hTERT-BJ cells at 12.50 uM after 48 hrs by resazurin dye-based fluorescence assay relative to control; assay type: cell-based; conditions: human, 12.5 µM
# [9] = Selectivity index, ratio of IC50 for hTERT-RPE1 cells to IC50 for human HepG2 cells; assay type: toxicity; conditions: hTERT-RPE1 cells versus HepG2 cells, read-out: Ratio IC50
# hTERT-BJ [10] = assay: Cytotoxicity against hTERT-BJ cells after 48 hrs by resazurin dye-based fluorescence assay; assay type: cell-based; conditions: Homo sapiens
# TERT-RPE1 [11] = assay: Cytotoxicity against hTERT-RPE1 cells at 50 uM after 48 hrs by resazurin dye-based fluorescence assay relative to control; assay type: cell-based; conditions: human, tert-rpe1, 48 h
# [12] = Selectivity index, ratio of IC50 for hTERT-BJ cells to IC50 for human HepG2 cells; assay type: toxicity; conditions: hTERT-BJ cells versus HepG2 cells, read-out: Ratio IC50
# [13] = Selectivity index, ratio of IC50 for hTERT-RPE1 cells to IC50 for human PANC1 cells; assay type: toxicity; conditions: hTERT-RPE1 cells versus PANC1 cells, read-out: Ratio IC50
# TERT-RPE1 [14] = assay: Cytotoxicity against hTERT-RPE1 cells at 12.50 uM after 48 hrs by resazurin dye-based fluorescence assay relative to control; assay type: cell-based; conditions: human, tert-rpe1, 48 h, 12.5 µM
# hTERT-BJ [15] = assay: Cytotoxicity against hTERT-BJ cells at 50 uM after 48 hrs by resazurin dye-based fluorescence assay relative to control; assay type: cell-based; conditions: human
# PANC-1 = assay: Antiproliferative activity against human PANC1 cells after 48 hrs by resazurin dye-based fluorescence assay; assay type: functional, cell-based; conditions: PANC-1, 48 h
# hTERT-BJ [16] = assay: Cytotoxicity against hTERT-BJ cells at 6.25 uM after 48 hrs by resazurin dye-based fluorescence assay relative to control; assay type: cell-based; conditions: human
Compound,IC50 (HepG2),IC50 (CCRF-CEM),IC50 (PANC-1),Activity (hTERT-BJ [1]),Activity (TERT-RPE1 [2]),selectivity ratio [3],Activity (TERT-RPE1 [4]),selectivity ratio [5],selectivity ratio [6],IC50 (TERT-RPE1 [7]),Activity (hTERT-BJ [8]),selectivity ratio [9],IC50 (hTERT-BJ [10]),Activity (TERT-RPE1 [11]),selectivity ratio [12],selectivity ratio [13],Activity (TERT-RPE1 [14]),Activity (hTERT-BJ [15]),Activity (hTERT-BJ [16])
O=C(N/N=C/c1ccncc1)c1cc2ccccc2oc1=O,17.2 µM,3.11 µM,9.75 µM,3.9%,12.2%,> 5.13,0.65%,> 16.1,> 16.1,> 50 µM,1.23%,> 2.91,> 50 µM,13.73%,> 2.91,> 5.13,4.08%,1.73%,0.6%
O=C(N/N=C/c1cccnc1)c1cc2cc(Br)ccc2oc1=O,19 µM,3.71 µM,8.35 µM,1.7%,25.4%,> 5.99,6.64%,> 13.5,> 13.5,> 50 µM,0.78%,> 2.63,> 50 µM,34.12%,> 2.63,> 5.99,12.55%,2.33%,0.86%
CCOc1ccc(NC(=O)c2cc3cc(Br)ccc3oc2=O)cc1,37 µM,21.8 µM,16.8 µM,1.86%,13.28%,> 2.97,3.04%,> 2.3,> 2.3,> 50 µM,1.19%,> 1.35,> 50 µM,16.45%,> 1.35,> 2.97,9.63%,3.3%,2.3%
O=C(N/N=C/c1cc2ccccc2nc1Cl)c1cc2cc([N+](=O)[O-])ccc2oc1=O,22.8 µM,26 µM,38.8 µM,1.77%,1.96%,> 1.29,1.3%,> 1.92,> 1.92,> 50 µM,1.37%,> 2.2,> 50 µM,2.33%,> 2.2,> 1.29,0.73%,2.73%,1.2%
COc1cccc2c1C(=O)c1c(O)c3c(c(O)c1C2=O)C[C@@](O)(C(=O)CO)C[C@@H]3O[C@H]1C[C@H](N)[C@H](O)[C@H](C)O1 [DOXORUBICIN],5.43 µM,1.05 µM,6.9 µM,–,–,< 0.91,–,< 5.95,< 5.95,< 6.25 µM,–,< 1.15,< 6.25 µM,–,< 1.15,< 0.91,–,–,–
O=C(N/N=C/c1cccnc1)c1cc2ccc(O)cc2oc1=O,18.4 µM,14.1 µM,2.52 µM,1.99%,14.34%,> 19.8,8.83%,> 3.55,> 3.55,> 50 µM,1.26%,> 2.72,> 50 µM,20.79%,> 2.72,> 19.8,12.79%,2.27%,0.5%
Cc1noc(NS(=O)(=O)c2ccc(NC(=O)c3cc4cc(Br)ccc4oc3=O)cc2)c1C,8.8 µM,14.6 µM,28.7 µM,3.04%,12.79%,> 1.74,1.84%,> 3.43,> 3.43,> 50 µM,1.2%,> 5.68,> 50 µM,26.26%,> 5.68,> 1.74,10.36%,13.26%,0.95%

# Second part, led by results:
IC50 (HepG2),IC50 (CCRF-CEM),IC50 (PANC-1),Compound,Activity (hTERT-BJ [1]),Activity (TERT-RPE1 [2]),selectivity ratio [3],Activity (TERT-RPE1 [4]),selectivity ratio [5],selectivity ratio [6],IC50 (TERT-RPE1 [7]),Activity (hTERT-BJ [8]),selectivity ratio [9],IC50 (hTERT-BJ [10]),Activity (TERT-RPE1 [11]),selectivity ratio [12],selectivity ratio [13],Activity (TERT-RPE1 [14]),Activity (hTERT-BJ [15]),Activity (hTERT-BJ [16])
33.1 µM,6.32 µM,29.9 µM,CCOc1ccc2nc(Cl)c(/C=N/NC(=O)c3cc4ccccc4oc3=O)cc2c1,3.92%,9.5%,> 1.67,1.13%,> 7.92,> 7.92,> 50 µM,5.65%,> 1.51,> 50 µM,9.97%,> 1.51,> 1.67,1.23%,3.64%,2.77%
17 µM,17.1 µM,11.8 µM,O=C(N/N=C/c1cccnc1)c1cc2cc([N+](=O)[O-])ccc2oc1=O,3.22%,10.95%,> 4.24,1.1%,> 2.92,> 2.92,> 50 µM,5.49%,> 2.94,> 50 µM,17.11%,> 2.94,> 4.24,2.22%,3.99%,3.59%
17.3 µM,12.6 µM,14.3 µM,CCOc1ccc(NC(=O)c2cc3ccc(O)cc3oc2=O)cc1,30.03%,19.22%,> 3.5,11.23%,> 3.97,> 3.97,> 50 µM,15.98%,> 2.88,> 50 µM,36.28%,> 2.88,> 3.5,13.91%,31.23%,10.17%
28.3 µM,13.2 µM,12.1 µM,CCOc1ccc(NC(=O)c2cc3cc([N+](=O)[O-])ccc3oc2=O)cc1,5.22%,8.22%,> 4.13,5.12%,> 3.78,> 3.78,> 50 µM,1.66%,> 1.77,> 50 µM,9.35%,> 1.77,> 4.13,6.01%,6.11%,3.1%
19.2 µM,17.1 µM,0.129 µM,CCOc1ccc2nc(Cl)c(/C=N/NC(=O)c3cc4ccc(O)cc4oc3=O)cc2c1,2.26%,8.85%,> 388,3.51%,> 2.92,> 2.92,> 50 µM,1.47%,> 2.6,> 50 µM,13.99%,> 2.6,> 388,8.35%,5.63%,3.67%
29 µM,12.9 µM,17 µM,CCOc1ccc2nc(Cl)c(/C=N/NC(=O)c3cc4cc(Br)ccc4oc3=O)cc2c1,2.63%,13.67%,> 2.94,5.41%,> 3.87,> 3.87,> 50 µM,1.77%,> 1.72,> 50 µM,20.15%,> 1.72,> 2.94,12.4%,2.67%,0.53%
10.4 µM,17.9 µM,13.4 µM,CCOc1ccc(NC(=O)c2cc3ccccc3oc2=O)cc1,2.82%,22.19%,> 3.74,7.48%,> 2.79,> 2.79,> 50 µM,2.4%,> 4.83,> 50 µM,23.27%,> 4.83,> 3.74,12.77%,3.08%,0.59%
